Data: paper PMC9756341 (Journal of the American Chemical Society, 2022)

Legend:
[1] = test system: KLK6; test: Enzyme kinetics to calculate kobs/I, KLK6; format: biochemical, human; conditions: KLK6 1.5 nM, fluorogenic substrate 22 5 µM, 50 mM Tris 150 mM NaCl 1 mM EDTA 0.05% Tween20 pH 7.5, room temperature, read every 30 s for 30 min, ex/em 380/440 nm, pseudo first order kinetics, corrected by (1 + [S]/KM), triplicates
[2] = biological target: T1, uPA (Homo sapiens, UniProt P00749); test: Enzyme kinetics to calculate KM, uPA; format: biochemical; conditions: fluorogenic substrate, uPA 2 nM, 2% DMSO, room temperature, 30 min, Michaelis-Menten model, triplicates
T1 construct: purchased BioTechne 1310-SE
Method: Reagents were obtained from VWR, Sigma Aldrich, Sartorius, Fluorochem, AGTC, Novabiochem, TCI, Alfa Aesar, Iris Biotech, Thermofisher and Bachem. 1H and 13C NMR spectra were measured on 400 MHz Bruker AV instruments. Cells were obtained directly from the ATCC. A Waters LC-MS system (2767 sample manager, 2998 UV detector and 3100 mass detector) was used for the analysis and purification of peptides. The analytical column was an Xbridge C18 4.6 mm x 100 mm. The preparative column used to purify the peptides was an Xbridge C18 19 mm x 100 mm. For analytical LC-MS, the flow rate was 1.2 mL/min, while preparative runs were at 20 mL/min. […]
All solvents contained an additive (0.1% formic acid). High resolution mass was recorded on a Micromass Autospec Premier through the Imperial College London mass spectrometry services. […]
(§1) Fluorescence measurements were measured using an Envision plate reader. Fluorescence data was processed using Graphpad Prism 8. […]
Peptides were prepared using standard fluorenylmethoxycarbonyl (Fmoc) solid phase peptide synthesis. Reactions were monitored using the ninhydrin test. […]
(§2) 380nm/440nm. The data was analysed using Graphpad Prism 8. The initial slopes of each plot were calculated and presented in a bar chart, which represents the substrate specificity of the KLK. […]
(§3) Enzyme kinetics to calculate KM. Purified fluorogenic substrates were measured in triplicates. […]

[3] = biological target: T2, tPA (Homo sapiens, UniProt P00750); test: Enzyme kinetics to calculate KM, tPA; format: biochemical; conditions: fluorogenic substrate, tPA 2 nM, 2% DMSO, room temperature, 30 min, Michaelis-Menten model, triplicates
T2 construct: purchased BioTechne 7449-SE
T2 sequence (P00750 36-562): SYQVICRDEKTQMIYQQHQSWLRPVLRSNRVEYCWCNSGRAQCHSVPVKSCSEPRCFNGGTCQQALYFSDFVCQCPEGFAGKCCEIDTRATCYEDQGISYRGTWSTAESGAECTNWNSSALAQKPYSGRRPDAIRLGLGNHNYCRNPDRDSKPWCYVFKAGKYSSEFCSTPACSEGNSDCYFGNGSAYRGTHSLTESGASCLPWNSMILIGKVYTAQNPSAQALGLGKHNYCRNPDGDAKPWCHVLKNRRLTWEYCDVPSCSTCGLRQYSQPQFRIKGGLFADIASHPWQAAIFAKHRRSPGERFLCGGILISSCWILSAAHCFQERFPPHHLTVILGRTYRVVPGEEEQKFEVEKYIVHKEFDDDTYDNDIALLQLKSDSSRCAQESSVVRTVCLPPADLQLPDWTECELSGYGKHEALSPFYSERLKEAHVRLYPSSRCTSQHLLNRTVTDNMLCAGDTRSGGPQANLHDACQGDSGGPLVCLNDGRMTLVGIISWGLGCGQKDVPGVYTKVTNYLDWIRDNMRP
Method: (§4) Reagents were obtained from VWR, Sigma Aldrich, Sartorius, Fluorochem, AGTC, Novabiochem, TCI, Alfa Aesar, Iris Biotech, Thermofisher and Bachem. […]
(§5) (Code 7449-SE) and KLK8 (Code 2025-SE) were obtained from BioTechne. KLK6 was obtained from the group of Aubry Miller (DKFZ) and KLK7 was obtained from the group of Judith Clements (QUT).
The manufacturer’s recommended buffers were used with uPA and tPA but not KLK8. […]
as §1
(§6) 2-chlorotrityl chloride resin. […]
380nm/440nm. The data was analysed using Graphpad Prism 8. The initial slopes of each plot were calculated and presented in a bar chart, which represents the substrate specificity of the KLK. Error bars represent the standard deviation between the three replicates.
as §3
(§7) temperature, fluorescence was read once every 30 s for 30 min from an Envision plate reader at excitation/emission wavelengths of 380nm/440nm. The data was analysed with Graphpad Prism 8, using the Michaelis-Menten model.
(§8) Enzyme kinetics to calculate kobs/I. All ABPs and inhibitors were measured in triplicates. […]
using a pseudo first order kinetics model. The observed rate of inhibition (kobs) was calculated by plotting a one-phase association. […]

[4] = biological target: T3, KLK8 (Homo sapiens, UniProt O60259); test: Enzyme kinetics to calculate kobs/I, KLK8; format: biochemical; conditions: KLK8 1 nM, Boc-VPR-AMC 30 µM, 100 mM Na2PO4 0.01% Tween20 pH 8.5, room temperature, 30 min, pseudo first order kinetics, triplicates
T3 construct: Active recombinant FGFBP1 (Code 1593-FB), HSPG2 (Code 2364-ER), uPA (Code 1310-SE), tPA (Code 7449-SE) and KLK8 (Code 2025-SE) were obtained from BioTechne; purchased BioTechne 2025-SE
T3 sequence (O60259 33-260): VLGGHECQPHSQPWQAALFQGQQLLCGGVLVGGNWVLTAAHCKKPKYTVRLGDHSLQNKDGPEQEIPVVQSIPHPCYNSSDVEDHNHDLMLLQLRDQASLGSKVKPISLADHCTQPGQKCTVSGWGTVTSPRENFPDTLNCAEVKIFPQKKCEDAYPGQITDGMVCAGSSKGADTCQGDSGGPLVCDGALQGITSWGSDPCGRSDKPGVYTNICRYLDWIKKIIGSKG

[5] = test system: Capan-2 cells; conditions: 0.13 to 2 μM, Incucyte live cell imaging every 4 h for 5 days, serum-free DMEM
Method: Incucyte assays for proliferation and toxicity
Proliferation was quantified using the Incucyte software by measuring percentage confluency. Sytox
green was used as a marker for cell death. Cell death was quantified by measuring total green
fluorescence of each well.
Incucyte (proliferation and toxicity) assays. Capan-2 cells were seeded in a sterile 96 well plate
(10,000 cells per well). The outermost wells were left empty to mitigate edge effects. Cells were grown
in growth media (10% FBS) overnight to adhere. The next day, the media was replaced with serum-free
DMEM (117 µL) containing Sytox green (250 nM) or a DMSO control.

[6] = test system: endogenous active KLK6; conditions: Capan-2 conditioned media, streptavidin pulldown, KLK6 western blot
Method: Conditioned media was incubated with bABP 17 (10 μM) or DMSO for 2 h, and labeled proteins enriched on magnetic streptavidin-loaded beads, eluted, and analyzed by western blot against a KLK6 antibody.
Cell culture. Cells were cultured in their recommended culture media supplemented with 10% (v/v)
foetal bovine serum at 37 °C and 5% CO2.
Preparation of conditioned media. Cells were grown in standard growth media to 80% confluency in
a T175 flask. The medium was removed, and the cells were washed with serum-free, phenol-red free
RPMI. The cells were incubated with the same RPMI for 2 h. The medium was replaced once again
with serum-free, phenol-red free RPMI and the cells were incubated for 48 h. The condition medium
was collected and filtered through a 0.2 µm syringe filter. The medium was concentrated (25 mL to
0.75 mL) using a 3 kDa Mw cutoff spin filter to a final concentration of around 1 mg/mL. The protein
concentration was measured using a BioRad DCTM protein assay.
Pulldown experiments (western blot). Conditioned media was diluted with PBS to exactly 1 mg/mL.
200 µg of total protein was used per condition. The ABP or DMSO was added at a 1:100 dilution and
the samples were shaken at RT for 1 h. The proteins were precipitated using the MeOH/H2O/CHCl3
method. The pellet was washed twice with MeOH and dried in air for 5 min. The protein was
resuspended in 2% SDS in PBS to a concentration of 10 mg/mL. PBS was added to gradually dilute
the protein back to 1 mg/mL and the samples were centrifuged (17,000 g, 5 min). 5 µg of protein was
set aside as the “before pulldown” samples. Magnetic streptavidin beads were washed three times with
PBS. The rest of the protein was added into the beads and shaken at RT for 2 h. 5 µg of the supernatant
was set aside for analysis, while the rest was discarded. The beads were washed three times with 1%
SDS in PBS. […]
were boiled at 95 °C for 5 min. The proteins were analysed via SDS-PAGE and western blot analysis. […]
10 min, followed by 180 V for 60 min. Gels were then taken for western blot or in-gel fluorescence. […]

[7] = test system: BxPC-3 cells; conditions: BxPC-3 cells (no active KLK6), 2 μM, 24 h, relative to DMSO
Method: (§9) Next, the effect of KLK6 inhibition on migration and invasion of Capan-2 cells was assessed using a Boyden chamber assay.
(§10) (13 µL per condition). Control conditions included puromycin (100 µg/mL), DMSO only, Sytox green only or DMSO + Sytox green. The final inhibitor concentrations ranged from 2 µM to 125 nM. The cells were placed into an Incucyte with the incubator set at 37 °C and 5% CO2. Phase and green fluorescence were analysed every 4 h for 5 days.
(§11) Invasion/migration assays. Cell invasion was measured using Corning Fluoroblok inserts following a modified procedure11. Fluoroblok inserts were placed into the wells of a 24-well plate. Matrigel was suspended to 300 µg/mL in coating buffer (0.01M Tris, 0.7% NaCl, pH 8). The matrigel suspension (100 µL) was added into the Fluoroblok insert and the plate was left at 37 °C for 2 h. A migration control (with no matrigel) was also included. Cells were trypsinised and resuspended in serum-free DMEM.
(§12) The leftover buffer in the chambers was decanted and 500 µL of cells (100,000 per well) were seeded into the apical chamber of the insert. DMEM with 10% FBS (750 µL) was added into the basal chamber as a chemoattractant. The plate was incubated at 37 °C and 5% CO2 for 24 h. The chambers were removed and placed into a new 24-well plate containing 50 µM of CellTracker CMHC dye in HBSS. The cells were stained for 0.5 h and the chamber was removed and placed into the previous plate containing DMEM with 10% FBS. The cells were imaged for blue fluorescence (ex/em = 375/460) using a Celena S inverted fluorescence microscope. Percentage invasion was calculated by quantifying the cell area

[8] = test system: Capan-2 cells; conditions: Capan-2 cells (active KLK6), 2 μM, 24 h, relative to DMSO
Method: as §9, §10, §11, §12

[9] = test system: KLK6; test: Enzyme kinetics to calculate KM, KLK6; format: biochemical, human; conditions: fluorogenic substrate, KLK6 1.5 nM, 2% DMSO, room temperature, 30 min, Michaelis-Menten model, triplicates
Method: as §4, §5
The manufacturer’s recommended buffers were used with uPA and tPA but not KLK8. The KLK6 assay buffer was as follows: 50 mM Tris 150 mM NaCl, 1 mM EDTA, 0.05% Tween20, pH 7.5. The KLK7/8 buffer was as follows: 100 mM Na2PO4, 0.01% Tween20, pH 8.5. Fluorescence measurements were measured using an Envision plate reader. Fluorescence data was processed using Graphpad Prism 8. […]
as §6, §2, §3, §7, §8

[10] = Fluoroblok insert without Matrigel
[11] = Matrigel-coated Fluoroblok insert

Substance | KLK6 kobs/I [1] | further results
Yn–DPhe–Ser(Z)–Dht–DArgPP [compound 20] | 0 M^–1 s^–1 | –
Z-GGR-AMC | – | Km [2]: 190 µM; Km [3]: 1200 µM
Yn–Thr(Z)–Cha–His(Z)–Phg(4-guan)PP [compound 3] | 46 M^–1 s^–1 | –
biotin–Ahx–DPhe–Cha–Dht–ArgPP [compound 16] | 1300 M^–1 s^–1 | KLK8 kobs/I [4]: 150 M^–1 s^–1
Yn–Thr(Z)–Chg–His(Z)–Phg(4-guan)PP [compound 2] | 30 M^–1 s^–1 | –
biotin–Ahx–DPhe–DLys–Dht–Phg(4-guan)PP [compound 14] | 550 M^–1 s^–1 | KLK8 kobs/I [4]: 73 M^–1 s^–1
Yn–Thr(Z)–Ala–Dab(Z)–Phg(4-guan)PP [compound 8] | 11 M^–1 s^–1 | –
biotin–Ahx–DPhe–Ser(Z)–Dht–DArgPP [compound 18] | 0 M^–1 s^–1 | effect on proliferation (percentage confluency) [5]: no effect; labeling of endogenous KLK6 [6]: no KLK6 labeling; effect on migration [7, 10]: no effect; effect on invasion [7, 11]: no effect; effect on migration [8, 10]: no effect; effect on invasion [8, 11]: no effect
Yn–Asp(Chx)–Cha–His(Z)–Phg(4-guan)PP [compound 4] | 54 M^–1 s^–1 | –
Yn–Thr(Z)–Ala–Phg–Phg(4-guan)PP [compound 1] | 220 M^–1 s^–1 | –
biotin–Ahx–Thr(Z)–Cha–Dht–Phg(4-guan)PP [compound 10] | 420 M^–1 s^–1 | KLK8 kobs/I [4]: 71 M^–1 s^–1
Yn–Thr(Z)–Ala–Ser(Z)–Phg(4-guan)PP [compound 7] | 43 M^–1 s^–1 | –
Ac-DPhe-Ser(Z)-Dht-Arg-ACC [compound 23, purified fluorogenic substrate for KLK6] | – | Km [9]: 180 µM
Yn–Thr(Z)–Ala–Dht–Phg(4-guan)PP [compound 5] | 250 M^–1 s^–1 | –
biotin–Ahx–DhPhe–Cha–Dht–Phg(4-guan)PP [compound 12] | 140 M^–1 s^–1 | KLK8 kobs/I [4]: 0 M^–1 s^–1
biotin–Ahx–DPhe–Cha–Dht–Phg(4-guanPP [compound 11] | 210 M^–1 s^–1 | KLK8 kobs/I [4]: 0 M^–1 s^–1
Yn–Thr(Z)–Ala–Tyr(Z)–Phg(4-guan)PP [compound 6] | 7 M^–1 s^–1 | –
Ac-Thr(Z)-Ala-Phg-Arg-ACC [compound 22, purified fluorogenic substrate for KLK6] | – | Km [9]: 86 µM
biotin–Ahx–Thr(Z)–Ala–Dht–Phg(4-guan)PP [compound 9] | 220 M^–1 s^–1 | –
biotin–Ahx–DPhe–Cha–Ser(Ac)–Phg(4-guan)PP [compound 15] | 150 M^–1 s^–1 | KLK8 kobs/I [4]: 20 M^–1 s^–1
biotin–Ahx–DPhe–Lys–Dht–Phg(4-guan)PP [compound 13] | 250 M^–1 s^–1 | –
